Experimental findings from PubChem BioAssay AID264 (DTP/NCI, 2004) are described below.

Several values for one entry are separate records, joined by “and”; a condition that tells them apart may be missing. Identical values can stand only once. Inconclusive results are not listed.

The assay relates to nude mice, LX-1 lung xenograft intrarenal, tumor weight T/C. The assay is described as follows: NCI In Vivo Anticancer Drug Screen. Data for tumor model Human Lung LX-1 Xenograft (intrarenal inoculation) in NU/NU Swiss (nude) mice. Conditions: endpoint: mean tumor weight change, higher = larger tumour. A digest of the protocol:
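Activity was scored by measuring tumors in treated animals and in vehicle controls, then reporting the treated result as a fraction of the control result.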

The mark [1] stands for this setting: dose: 300.0 mg/kg/injection, schedule: Q04DX003 (sc), vehicle: saline with Tween-80.
Setting [2] is: dose: 600.0 mg/kg/injection, schedule: Q04DX003 (sc), vehicle: saline with Tween-80.
Setting [3] is: dose: 1200.0 mg/kg/injection, schedule: Q04DX003 (sc), vehicle: saline with Tween-80.
Where [4] appears, read: dose: 100.0 mg/kg/injection, schedule: Q01DX010 (sc), vehicle: saline.
Setting [5] is: dose: 200.0 mg/kg/injection, schedule: Q01DX010 (sc), vehicle: saline.
The mark [6] stands for this setting: dose: 400.0 mg/kg/injection, schedule: Q01DX010 (sc), vehicle: saline.
Where [7] appears, read: dose: 18.75 mg/kg/injection, schedule: Q04DX003 (sc), vehicle: Klucel (hydroxypropylcellulose) (HPC).
Where [8] appears, read: dose: 37.5 mg/kg/injection, schedule: Q04DX003 (sc), vehicle: Klucel (hydroxypropylcellulose) (HPC).
The mark [9] stands for this setting: dose: 75.0 mg/kg/injection, schedule: Q04DX003 (sc), vehicle: Klucel (hydroxypropylcellulose) (HPC).
Where [10] appears, read: dose: 150.0 mg/kg/injection, schedule: Q04DX003 (sc), vehicle: Klucel (hydroxypropylcellulose) (HPC).
[11] abbreviates: dose: 300.0 mg/kg/injection, schedule: Q04DX003 (sc), vehicle: Klucel (hydroxypropylcellulose) (HPC).
Where [12] appears, read: dose: 600.0 mg/kg/injection, schedule: Q04DX003 (sc), vehicle: Klucel (hydroxypropylcellulose) (HPC).
Where [13] appears, read: dose: 1200.0 mg/kg/injection, schedule: Q04DX003 (sc), vehicle: Klucel (hydroxypropylcellulose) (HPC).
[14] abbreviates: dose: 150.0 mg/kg/injection, schedule: Q04DX003 (sc), vehicle: saline with Tween-80.

In the case of `CCCCCCC(=O)CC(SCC)c1ccccc1Cl` (stereo unspecified), the T/C under setting [1] was 82 % of control; the T/C under setting [2] is 96 % of control; the T/C under setting [3] is 92 % of control; the T/C (dose: 2400.0 mg/kg/injection, schedule: Q04DX003 (sc), vehicle: saline with Tween-80) is 72 % of control.
`C=C(C)[C@]12CC(C)C34OC(/C=C\C=C\CCCCCCCCC)(O[C@@H]1[C@@H]3[C@@H]1O[C@]1(CO)[C@@H](O)[C@]1(O)C(=O)C(C)=C[C@@H]41)O2` (stereo partly specified): the T/C runs as follows: (dose: 3.0 mg/kg/injection, schedule: Q04DX003 (sc), vehicle: distilled water + alcohol) 84 % of control; (dose: 6.0 mg/kg/injection, schedule: Q04DX003 (sc), vehicle: distilled water + alcohol) 77 % of control; (dose: 12.0 mg/kg/injection, schedule: Q04DX003 (sc), vehicle: distilled water + alcohol) 81 % of control.
With `COc1cc(Cc2nccc3cc(OC)c(OC)cc23)c(C(C)=O)c(OC)c1`, the T/C is 78 % of control (dose: 40.0 mg/kg/injection, schedule: Q01DX010 (sc), vehicle: saline); 57 % of control (dose: 80.0 mg/kg/injection, schedule: Q01DX010 (sc), vehicle: saline); 67 % of control (dose: 160.0 mg/kg/injection, schedule: Q01DX010 (sc), vehicle: saline).
For the compound `O=NN(CCCl)C(=O)NC1CCC(=O)NC1=O` (stereo unspecified), the T/C (dose: 1.56 mg/kg/injection, schedule: Q01DX010 (ip), vehicle: saline with Tween-80) was 29 % of control; the T/C (dose: 3.13 mg/kg/injection, schedule: Q01DX010 (ip), vehicle: saline with Tween-80) was 3 % of control; the T/C (dose: 3.13 mg/kg/injection, schedule: Q01DX010 (sc), vehicle: saline with Tween-80) was 10 % of control; the T/C (dose: 5.2 mg/kg/injection, schedule: Q04DX003 (ip), vehicle: saline with Tween-80) is 5 % of control; the T/C (dose: 6.25 mg/kg/injection, schedule: Q01DX010 (ip), vehicle: saline with Tween-80) is -74 % of control; the T/C (dose: 10.4 mg/kg/injection, schedule: Q04DX003 (ip), vehicle: saline with Tween-80) was -94 % of control.
With `CNC=O`, the T/C by setting is: under setting [4], 35 % of control; under setting [5], 7 % of control and 15 % of control and 21 % of control; under setting [6], 1 % of control and 2 % of control and 24 % of control; (dose: 1600.0 mg/kg/injection, schedule: Q01DX010 (sc), vehicle: saline) 1 % of control.
On to `Nc1ncnc2c1nnn2C1OC(CO)C(O)C1O` (stereo unspecified), for which the T/C runs as follows: under setting [7], 102 % of control; under setting [8], 96 % of control; under setting [9], 103 % of control; under setting [10], 80 % of control.
Regarding `O=[N+]([O-])c1ccc(Sc2ccncn2)c([N+](=O)[O-])c1`, the T/C runs as follows: under setting [1], 104 % of control; under setting [2], 105 % of control; under setting [3], 98 % of control.
In the case of `CC(=O)OC1COC(NC(=O)N(CCCl)N=O)C(OC(C)=O)C1OC(C)=O` (stereo unspecified), the T/C reads like this: (dose: 1.5 mg/kg/injection, schedule: Q01DX010 (sc), vehicle: saline with Tween-80) 83 % of control; (dose: 3.0 mg/kg/injection, schedule: Q01DX010 (sc), vehicle: saline with Tween-80) 71 % of control; (dose: 6.0 mg/kg/injection, schedule: Q01DX010 (sc), vehicle: saline with Tween-80) 60 % of control; (dose: 12.0 mg/kg/injection, schedule: Q01DX010 (sc), vehicle: saline with Tween-80) 72 % of control.
Consider `CC(C)CC(=O)NC(C(=O)NC(C(=O)NC(CC(C)C)C(O)CC(=O)NC(C)C(=O)NC(CC(C)C)C(O)CC(=O)O)C(C)C)C(C)C` (stereo unspecified), for which the T/C under setting [10] was 70 % of control, the T/C under setting [11] was 93 % of control, the T/C under setting [12] is 66 % of control and the T/C under setting [13] was 51 % of control.
Turning to `Cn1cnc([N+](=O)[O-])c1SCC(=O)O`, the T/C reads like this: under setting [4], 71 % of control; under setting [5], 83 % of control; under setting [6], 103 % of control; (dose: 800.0 mg/kg/injection, schedule: Q01DX010 (sc), vehicle: saline) 66 % of control.
`C=C1C(=O)C2=CC1CCC(=O)C1(C)CCC(OC(C)=O)C(C)(C)C1CC2O` (stereo unspecified): the T/C reads like this: (dose: 60.0 mg/kg/injection, schedule: Q04DX003 (sc), vehicle: Klucel (hydroxypropylcellulose) (HPC)) 121 % of control; (dose: 120.0 mg/kg/injection, schedule: Q04DX003 (sc), vehicle: Klucel (hydroxypropylcellulose) (HPC)) 57 % of control.
In the case of `O=C1C2CC=CCC2C(=O)N1SC(Cl)(Cl)Cl` (stereo unspecified), the T/C was 102 % of control (dose: 6.25 mg/kg/injection, schedule: Q01DX010 (sc), vehicle: saline with Tween-80); 56 % of control (dose: 12.5 mg/kg/injection, schedule: Q01DX010 (sc), vehicle: saline with Tween-80); 64 % of control and 86 % of control (dose: 50.0 mg/kg/injection, schedule: Q01DX010 (sc), vehicle: saline with Tween-80); 76 % of control (dose: 100.0 mg/kg/injection, schedule: Q01DX010 (sc), vehicle: saline with Tween-80); 97 % of control (dose: 200.0 mg/kg/injection, schedule: Q01DX010 (sc), vehicle: saline with Tween-80).
`CCC(C)Nc1ccc(N)cc1` (stereo unspecified): the T/C (dose: 9.0 mg/kg/injection, schedule: Q04DX003 (sc), vehicle: Klucel (hydroxypropylcellulose) (HPC)) is 80 % of control and the T/C (dose: 18.0 mg/kg/injection, schedule: Q04DX003 (sc), vehicle: Klucel (hydroxypropylcellulose) (HPC)) is 104 % of control.
Regarding `CC(=O)C1(O)Cc2c(O)c3c(c(O)c2C(OC2CC(N)C(O)C(C)O2)C1)C(=O)c1ccccc1C3=O` (stereo unspecified), the T/C (dose: 0.5 mg/kg/injection, schedule: Q04DX003 (sc), vehicle: water) was 120 % of control.
Turning to `Nc1nncs1`, where the note is “dose: 12.5 mg/kg/injection, schedule: Q01DX010 (sc), vehicle: saline”, the T/C is 104 % of control.
Take `Cc1nn(CCO)c(C)c1N=[N+]([O-])c1c(C)nn(CCO)c1C`: the T/C was 99 % of control under setting [10], 105 % of control under setting [11], 121 % of control under setting [12] and 103 % of control under setting [13].
Take `O=C(C#Cc1ccccc1)c1ccccc1`: the T/C is, setting by setting: under setting [7], 87 % of control; (dose: 25.0 mg/kg/injection, schedule: Q04DX003 (sc), vehicle: Klucel (hydroxypropylcellulose) (HPC)) 111 % of control; under setting [8], 96 % of control; (dose: 50.0 mg/kg/injection, schedule: Q04DX003 (sc), vehicle: Klucel (hydroxypropylcellulose) (HPC)) 90 % of control; under setting [9], 105 % of control; (dose: 100.0 mg/kg/injection, schedule: Q04DX003 (sc), vehicle: Klucel (hydroxypropylcellulose) (HPC)) 113 % of control. In addition, the T/C is 65 % of control under setting [10] and 81 % of control (dose: 200.0 mg/kg/injection, schedule: Q04DX003 (sc), vehicle: Klucel (hydroxypropylcellulose) (HPC)).
As to `COC(=O)C(Cl)(Cl)N=Nc1c(Cl)cc(Cl)c(C)c1Cl`, the T/C under setting [14] is 210 % of control, the T/C under setting [1] is 196 % of control, the T/C under setting [2] was 237 % of control and the T/C under setting [3] was 209 % of control.
With `CCC[CH2][Hg][Cl]`, the T/C is, setting by setting: under setting [7], 69 % of control; under setting [8], 53 % of control.
`CC(C)NC(=O)N(CCCCBr)N=O`: the T/C is 95 % of control under setting [9], 52 % of control under setting [10] and 44 % of control under setting [11].
As for `O=CC(=O)c1ccc(O)cc1`, the T/C is 51 % of control (dose: 150.0 mg/kg/injection, schedule: Q04DX003 (sc), vehicle: saline); 49 % of control (dose: 300.0 mg/kg/injection, schedule: Q04DX003 (sc), vehicle: saline); 58 % of control (dose: 600.0 mg/kg/injection, schedule: Q04DX003 (sc), vehicle: saline).
As for `COc1ccc([I+]c2cccc(Cl)c2)cc1Cl`, the T/C is, setting by setting: (dose: 75.0 mg/kg/injection, schedule: Q04DX003 (sc), vehicle: saline with Tween-80) 93 % of control; under setting [14], 86 % of control; under setting [1], 85 % of control; under setting [2], 74 % of control; under setting [3], 83 % of control.
Turning to `CC[C@@]1(O)C[C@H](OC2CC(N(C)C)C(OC3CC(O)C(OC4CCC(=O)C(C)O4)C(C)O3)C(C)O2)c2c(cc3c(c2O)C(=O)c2c(O)ccc(O)c2C3=O)[C@H]1C(=O)OC` (stereo partly specified), the T/C (dose: 3.0 mg/kg/injection, schedule: Q04DX003 (sc), vehicle: water) is 51 % of control and the T/C (dose: 6.0 mg/kg/injection, schedule: Q04DX003 (sc), vehicle: water) was 79 % of control.
